Results from patent US12540141B2, “Spiropyrrolidine derived antiviral agents” (priority 2020, dated 2026).
pIC50: −log10 of the molar value.

The compounds below were run against SARS-CoV-2 3CL-protease (Severe acute respiratory syndrome coronavirus 2, UniProt P0DTD1) (assay: SARS-CoV-2 3C-Like (3CL) Protease Fluorescence Assay (FRET)). Conditions: SARS-CoV-2 3CL-protease 10 nM, 30 min preincubation at RT, substrate 40 μM.
Assay type: biochemical

SMILES	pIC50
CC(C)C[C@@H](C(=O)N1C[C@]2(C[C@H]1C#N)C(=O)Nc1ccccc12)N(C)C(=O)c1cc2cccnc2cc1F [Example 275]	> 7.00
CN(C(=O)c1cn(-c2ccc(F)cc2)nn1)[C@@H](Cc1ccccc1)C(=O)N1C[C@]2(C[C@H]1C#N)C(=O)Nc1ccccc12 [Example 357]	> 7.00
CCC[C@@H](C(=O)N1C[C@]2(C[C@H]1C#N)C(=O)Nc1ccccc12)N(C)C(=O)c1cc2c(F)cc(F)cc2[nH]1 [Example 386]	> 7.00
[2H]C([2H])([2H])N(C(=O)c1cn(-c2ccc(Cl)cc2)nn1)[C@@H](CC(C)(C)C)C(=O)N1C[C@]2(C[C@H]1C#N)C(=O)Nc1ccccc12 [Example 377]	> 7.00
CC(C)C[C@@H](C(=O)N1C[C@]2(C[C@H]1C#N)C(=O)Nc1ccccc12)N(C)C(=O)c1cnc2ccccc2c1 [Example 213]	> 7.00
CC(C)C[C@@H](C(=O)N1C[C@]2(C[C@H]1C#N)C(=O)Nc1ccccc12)N(C)C(=O)c1ccc2cn[nH]c2c1 [Example 223]	6.00 to 7.00
COc1ccnc(C(=O)N(C)[C@@H](CC(C)C)C(=O)N2C[C@]3(C[C@H]2C#N)C(=O)Nc2ccccc23)c1 [Example 192]	6.00 to 7.00
CNCCC(=O)N(C)[C@@H](CC(C)(C)F)C(=O)N1C[C@]2(C[C@H]1C#N)C(=O)Nc1ccccc12 [Example 543]	> 7.00
CC(C)C[C@@H](C(=O)N1C[C@]2(C[C@H]1C#N)C(=O)Nc1ccccc12)N(C)C(=O)c1ccc(Cl)c(F)c1F [Example 175]	> 7.00
CC(C)C[C@@H](C(=O)N1C[C@]2(C[C@H]1C#N)C(=O)Nc1ccccc12)N(C)C(=O)c1cn(C)cn1 [Example 201]	6.00 to 7.00
CC(C)C[C@@H](C(=O)N1C[C@]2(C[C@H]1C#N)C(=O)Nc1ccccc12)N(C)C(=O)c1cccc(OC(F)(F)F)c1 [Example 189]	6.00 to 7.00
CC(C)C[C@H](NC(=O)c1cc2c(F)cccc2[nH]1)C(=O)N1C[C@]2(C[C@H]1C#N)C(=O)Nc1cccc(Cl)c12 [Example 528]	6.00 to 7.00
CN(C(=O)C(F)(F)c1cccnc1)[C@@H](CC(C)(C)F)C(=O)N1C[C@]2(C[C@H]1C#N)C(=O)Nc1ccc(Cl)cc12 [Example 482]	> 7.00
CN(C(=O)CCNc1nccs1)[C@@H](CC(C)(C)F)C(=O)N1C[C@]2(C[C@H]1C#N)C(=O)Nc1ccccc12 [Example 547]	> 7.00
CN(C(=O)CCN1CCCC1)[C@@H](CC(C)(C)F)C(=O)N1C[C@]2(C[C@H]1C#N)C(=O)Nc1ccccc12 [Example 541]	> 7.00
CC(C)C[C@@H](C(=O)N1C[C@]2(C[C@H]1C(O)S(=O)(=O)O)C(=O)Nc1ccccc12)N(C)C(=O)c1cc2c(F)cc(F)cc2[nH]1 (stereo partly drawn) [Example 153]	> 7.00
CC(C)C[C@@H](C(=O)N1C[C@]2(C[C@H]1C#N)C(=O)Nc1ccccc12)N(C)C(=O)c1cc(F)c2nc(C3CC3)cn2c1 [Example 318]	> 7.00
CC(C)C[C@@H](C(=O)N1C[C@]2(C[C@H]1C#N)C(=O)Nc1ccccc12)N(C)C(=O)c1ccc2ncccc2c1F [Example 330]	> 7.00
CC(C)C[C@@H](C(=O)N1C[C@]2(C[C@H]1C#N)C(=O)Nc1ccccc12)N(C)C(=O)c1ccc2ncc(C(F)(F)F)cc2c1 [Example 237]	> 7.00
CC(C)C[C@@H](C(=O)N1C[C@]2(C[C@H]1C#N)C(=O)Nc1ccccc12)N(C)C(=O)NCc1ccccc1 [Example 433]	> 7.00
CC(C)C[C@@H](C(=O)N1C[C@]2(C[C@H]1C#N)C(=O)Nc1ccccc12)N(C)C(=O)c1cc(OC2CC2)c2ncccc2c1 [Example 312]	> 7.00

SMILES	pIC50
CC(C)C[C@@H](C(=O)N1C[C@]2(C[C@H]1C#N)C(=O)Nc1ccccc12)N(C)C(=O)c1cccc2ncc(F)cc12 [Example 304]	> 7.00
CC(C)C[C@@H](C(=O)N1C[C@]2(C[C@H]1C#N)C(=O)Nc1ccccc12)N(C)C(=O)c1cc2ccc(Br)cc2cn1 [Example 236]	6.00 to 7.00
CC(C)C[C@@H](C(=O)N1C[C@]2(C[C@H]1C#N)C(=O)Nc1ccc(-c3cn(-c4ccccn4)nn3)cc12)N(C)C(=O)c1cc2c(F)cc(F)cc2[nH]1 [Example 507]	> 7.00
CC(C)C[C@@H](C(=O)N1C[C@]2(C[C@H]1C#N)C(=O)Nc1ccccc12)N(C)C(=O)c1cc2cccc(C(F)(F)F)c2[nH]1 [Example 336]	> 7.00
CN(C(=O)c1cn(CC(F)(F)F)nn1)[C@@H](Cc1ccccc1)C(=O)N1C[C@]2(C[C@H]1C#N)C(=O)Nc1ccccc12 [Example 362]	> 7.00
CC(C)C[C@@H](C(=O)N1C[C@]2(C[C@H]1C#N)C(=O)Nc1ccccc12)N(C)C(=O)c1nc2ccccc2n1C [Example 282]	6.00 to 7.00
CC(C)C[C@@H](C(=O)N1C[C@]2(C[C@H]1C#N)C(=O)Nc1ccccc12)N(C)C(=O)c1ccc(Cl)c(C(F)(F)F)c1 [Example 174]	> 7.00
CN(C(=O)Cc1cccc(C(F)(F)F)n1)[C@@H](CC(C)(C)F)C(=O)N1C[C@]2(C[C@H]1C#N)C(=O)Nc1ccc(Cl)cc12 [Example 485]	6.00 to 7.00
COc1cc(C(=O)N(C)[C@@H](CC(C)C)C(=O)N2C[C@]3(C[C@H]2C#N)C(=O)Nc2ccccc23)cc2cn(C3(C)CC3)nc12 [Example 319]	> 7.00
CN(C(=O)C1(c2ccccn2)CC1)[C@@H](CC(C)(C)F)C(=O)N1C[C@]2(C[C@H]1C#N)C(=O)Nc1ccc(Cl)cc12 [Example 478]	> 7.00
CC(C)C[C@@H](C(=O)N1C[C@]2(C[C@H]1C#N)C(=O)Nc1ccccc12)N(C)C(=O)[C@@H](c1cn(C)nn1)C(C)C [Example 350]	> 7.00
[2H]C([2H])([2H])N(C(=O)c1cnn(CC(F)(F)F)c1)[C@@H](CC1CC1)C(=O)N1C[C@]2(C[C@H]1C#N)C(=O)Nc1ccccc12 [Example 395]	> 7.00
CC(C)C[C@@H](C(=O)N1C[C@]2(C[C@H]1C#N)C(=O)Nc1ccccc12)N(C)C(=O)c1cccc(-c2cccc(C#N)c2)c1 [Example 279]	6.00 to 7.00
CC(C)C[C@@H](C(=O)N1C[C@]2(C[C@H]1C#N)C(=O)Nc1ccccc12)N(C)C(=O)c1ccc(F)c(F)c1 [Example 178]	> 7.00
N#C[C@@H]1C[C@@]2(CN1C(=O)[C@H](CC1CC1)NC(=O)c1cc3c(F)cc(F)cc3[nH]1)C(=O)Nc1ccc(Cl)cc12 [Example 453]	> 7.00
[2H]C([2H])([2H])N(C(=O)c1cnn2cc(Cl)ccc12)[C@@H](CCCC)C(=O)N1C[C@]2(C[C@H]1C#N)C(=O)Nc1ccccc12 [Example 398]	> 7.00
CC(C)C[C@@H](C(=O)N1C[C@]2(C[C@H]1C#N)C(=O)Nc1ccccc12)N(C)C(=O)[C@H]1CCN(C(=O)OC(C)(C)C)C1 [Example 344]	6.00 to 7.00
CC(C)C[C@@H](C(=O)N1C[C@]2(C[C@H]1C#N)C(=O)Nc1ccccc12)N(C)C(=O)c1cc(F)c2nc(C3CC3)c(C(=O)C(F)(F)F)n2c1 [Example 314]	6.00 to 7.00
CC(C)C[C@@H](C(=O)N1C[C@]2(C[C@H]1C#N)C(=O)Nc1ccccc12)N(C)C(=O)C[C@H](Cc1cc(F)c(F)cc1F)NC(=O)OC(C)(C)C [Example 291]	> 7.00
Cc1cc2cc(C(=O)N(C)[C@@H](CC(C)C)C(=O)N3C[C@]4(C[C@H]3C#N)C(=O)Nc3ccccc34)cc(OC(F)(F)F)c2nc1C [Example 238]	> 7.00
CN(C(=O)C1(c2cccnc2)CC1)[C@@H](CC(C)(C)F)C(=O)N1C[C@]2(C[C@H]1C#N)C(=O)Nc1ccc(Cl)cc12 [Example 479]	> 7.00
